Among the data in US10058550B2, “Methods of treating heart failure” (priority 2015, dated 2018) are EC50 values, retold here.

The target in this assay is human APJ receptor (Homo sapiens (Human), UniProt P35414). As to the kind of experiment: biochemical. It counts as biochemical. The note with it: read-out: Activity hAPJ SPA EC50 IP. The procedure: The human APJ receptor was cloned by polymerase chain reaction and the gene encoding the receptor was subcloned in pFLAG-CMV™-3 expression vector (Sigma, Saint Louis, Mo. USA) in-house at Amgen. A GTPγS binding assay was performed on membranes prepared from CHO cells stably expressing human APJ receptor. The optimum experimental conditions for the concentrations of GDP, MgCl2, and NaCl in the assay buffer were initially determined. The assay was performed in assay buffer [20 mM HEPES, pH 7.5, 5 mM MgCl2, and 0.1% (w/v) BSA with 200 mM NaCl, 3 μM GDP] and membranes expressing human APJ receptor/well along with WGA PS beads. The reaction was initiated by addition of 0.2 nM [^35S]GTPγS (Perkin Elmer Life and Analytical Sciences, Waltham USA) in the absence or presence of various ligands and incubated at RT for 90 min. […] All the results presented are means of several independent experiments and analyzed by non-linear regression methods using commercially available program Prism (GraphPad, San Diego, Calif.) to obtain EC50 detailed in Table 58.
human APJ receptor, sequence (P35414 whole entry): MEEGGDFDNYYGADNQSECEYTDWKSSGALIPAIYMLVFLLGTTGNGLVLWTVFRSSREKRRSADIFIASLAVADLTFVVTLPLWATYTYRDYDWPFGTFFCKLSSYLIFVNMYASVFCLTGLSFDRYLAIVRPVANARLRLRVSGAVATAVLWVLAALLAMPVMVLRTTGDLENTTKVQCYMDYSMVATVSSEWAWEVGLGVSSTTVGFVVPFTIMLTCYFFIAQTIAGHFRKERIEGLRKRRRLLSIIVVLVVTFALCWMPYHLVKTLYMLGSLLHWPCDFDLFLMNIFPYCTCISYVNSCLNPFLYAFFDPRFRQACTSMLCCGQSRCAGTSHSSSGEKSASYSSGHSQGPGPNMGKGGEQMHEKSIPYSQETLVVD

As to `COc1cccc(-c2nnc(NS(=O)(=O)[C@H](C)Cc3ncc(F)cn3)n2-c2c(C)noc2C)n1` (mixture of isomers) [Example 32.0, (2R)-N-(4-(3,5-dimethylisoxazol-4-yl)-5-(6-methoxypyridin-2-yl)-4H-1,2,4-triazol-3-yl)-1-(5-fluoropyrimidin-2-yl)propane-2-sulfonamide and (2S)-N-(4-(3,5-dimethylisoxazol-4-yl)-5-(6-methoxypyridin-2-yl)-4H-1,2,4-triazol-3-yl)-1-(5-fluoropyrimidin-2-yl)propane-2-sulfonamide], the EC50 came out at 140 nM.
In the case of `COc1cccc(-c2nnc(NS(=O)(=O)[C@H](C)C(=O)N3CCCC3)n2-c2c(OC)cccc2OC)n1` (mixture of isomers) [Example 83.0, (2R)-N-(4-(2,6-dimethoxyphenyl)-5-(6-methoxy-2-pyridinyl)-4H-1,2,4-triazol-3-yl)-1-oxo-1-(1-pyrrolidinyl)-2-propanesulfonamide and (2S)-N-(4-(2,6-dimethoxyphenyl)-5-(6-methoxy-2-pyridinyl)-4H-1,2,4-triazol-3-yl)-1-oxo-1-(1-pyrrolidinyl)-2-propanesulfonamide], the concentration for a half-maximal effect (EC50) was found to be 48 nM.
Consider `COc1cccc(OC)c1-n1c(NS(=O)(=O)[C@@H](C)[C@H](C)c2ncc(F)cn2)nnc1-c1cccnc1` (mixture of isomers) [Example 182.0, (2R,3S)-N-(4-(2,6-dimethoxyphenyl)-5-(3-pyridinyl)-4H-1,2,4-triazol-3-yl)-3-(5-fluoro-2-pyrimidinyl)-2-butanesulfonamide and (2S,3R)-N-(4-(2,6-dimethoxyphenyl)-5-(3-pyridinyl)-4H-1,2,4-triazol-3-yl)-3-(5-fluoro-2-pyrimidinyl)-2-butanesulfonamide], for which the EC50 is 1.1 nM.
As to `COc1cccc(OC)c1-n1c(NS(=O)(=O)[C@@H](C)Cc2ncc(F)cn2)nnc1-c1ccccn1` (mixture of isomers) [Example 202.0, (2R)-N-(4-(2,6-dimethoxyphenyl)-5-(2-pyridinyl)-4H-1,2,4-triazol-3-yl)-1-(5-fluoro-2-pyrimidinyl)-2-propanesulfonamide and (2S)-N-(4-(2,6-dimethoxyphenyl)-5-(2-pyridinyl)-4H-1,2,4-triazol-3-yl)-1-(5-fluoro-2-pyrimidinyl)-2-propanesulfonamide], the concentration for a half-maximal effect (EC50) was 15.4 nM.
Take `COc1cccc(-c2nnc(NS(=O)(=O)C[C@H](O)c3ccc(Cl)cc3)n2-c2c(OC)cccc2OC)n1` (mixture of isomers) [Example 264.0, (R)-2-(4-chlorophenyl)-N-(4-(2,6-dimethoxyphenyl)-5-(6-methoxypyridin-2-yl)-4H-1,2,4-triazol-3-yl)-2-hydroxyethanesulfonamide and (S)-2-(4-chlorophenyl)-N-(4-(2,6-dimethoxyphenyl)-5-(6-methoxypyridin-2-yl)-4H-1,2,4-triazol-3-yl)-2-hydroxyethanesulfonamide]: the EC50 came to 0.34 nM.
With `COc1cccc(OC)c1-n1c(NS(=O)(=O)C[C@@H](O)C2CCC2)nnc1-c1cncc(C)c1` (mixture of isomers) [Example 382.0, (R)-2-cyclobutyl-N-(4-(2,6-dimethoxyphenyl)-5-(5-methylpyridin-3-yl)-4H-1,2,4-triazol-3-yl)-2-hydroxyethanesulfonamide and (S)-2-cyclobutyl-N-(4-(2,6-dimethoxyphenyl)-5-(5-methylpyridin-3-yl)-4H-1,2,4-triazol-3-yl)-2-hydroxyethanesulfonamide], the EC50 came to 73 nM.
The same measure for `COc1cccc(-c2nnc(NS(=O)(=O)[C@H](C)[C@@H](O)C(C)(C)C)n2-c2c(OC)cccc2OC)n1` (mixture of isomers) [Example 433.0]: 42 nM; for `COc1cccc(OC)c1-n1c(NS(=O)(=O)[C@@H](C)[C@H](C)c2ncc(F)cn2)nnc1-c1cccc(C)n1` (mixture of isomers) [Example 452.0, (2S,3R)—N-(4-(2,6-dimethoxyphenyl)-5-(6-methyl-2-pyridinyl)-4H-1,2,4-triazol-3-yl)-3-(5-fluoro-2-pyrimidinyl)-2-butanesulfonamide and (2R,3S)—N-(4-(2,6-dimethoxyphenyl)-5-(6-methyl-2-pyridinyl)-4H-1,2,4-triazol-3-yl)-3-(5-fluoro-2-pyrimidinyl)-2-butanesulfonamide]: 1 nM; for `COc1cccc(OC)c1-n1c(NS(=O)(=O)[C@@H](C)Cc2ncc(F)cn2)nnc1-c1cccc(C)n1` (mixture of isomers) [Example 618.0, (S)-N-(4-(2,6-dimethoxyphenyl)-5-(6-methylpyridin-2-yl)-4H-1,2,4-triazol-3-yl)-1-(5-fluoropyrimidin-2-yl)propane-2-sulfonamide and (R)-N-(4-(2,6-dimethoxyphenyl)-5-(6-methylpyridin-2-yl)-4H-1,2,4-triazol-3-yl)-1-(5-fluoropyrimidin-2-yl)propane-2-sulfonamide]: 5.4 nM.
Then `COc1cccc(OC)c1-n1c(NS(=O)(=O)[C@H](C)[C@@H](OC)c2ncnn2C)nnc1-c1cncc(C)c1` (mixture of isomers) [Example 637.0, (1S,2R)-N-(4-(2,6-dimethoxyphenyl)-5-(5-methylpyridin-3-yl)-4H-1,2,4-triazol-3-yl)-1-methoxy-1-(1-methyl-1H-1,2,4-triazol-5-yl)propane-2-sulfonamide and (1R,2S)-N-(4-(2,6-dimethoxyphenyl)-5-(5-methylpyridin-3-yl)-4H-1,2,4-triazol-3-yl)-1-methoxy-1-(1-methyl-1H-1,2,4-triazol-5-yl)propane-2-sulfonamide], with 150 nM; and `COc1cccc(OC)c1-n1c(NS(=O)(=O)[C@@H](C)[C@H](O)c2ccc(Br)c(C)n2)nnc1-c1cccnc1` (mixture of isomers) [Example 642.0, (1R,2S)-1-(5-bromo-6-methylpyridin-2-yl)-N-(4-(2,6-dimethoxyphenyl)-5-(pyridin-3-yl)-4H-1,2,4-triazol-3-yl)-1-hydroxypropane-2-sulfonamide and (1S,2R)-1-(5-bromo-6-methylpyridin-2-yl)-N-(4-(2,6-dimethoxyphenyl)-5-(pyridin-3-yl)-4H-1,2,4-triazol-3-yl)-1-hydroxypropane-2-sulfonamide], with 0.48 nM; and `COc1cccc(-c2nnc(NS(=O)(=O)[C@H]3CCCO[C@H]3c3ncc(C)cn3)n2-c2c(OC)cccc2OC)n1` (mixture of isomers) [Example 648.0], with 33 nM.
Then `COc1cccc(OC)c1-n1c(NS(=O)(=O)C(C)Cc2ncc(F)cn2)nnc1-c1cncc(Br)c1` (racemic) [Example 146.0, (2R)-N-(5-(5-bromo-3-pyridinyl)-4-(2,6-dimethoxyphenyl)-4H-1,2,4-triazol-3-yl)-1-(5-fluoro-2-pyrimidinyl)-2-propanesulfonamide and (2S)-N-(5-(5-bromo-3-pyridinyl)-4-(2,6-dimethoxyphenyl)-4H-1,2,4-triazol-3-yl)-1-(5-fluoro-2-pyrimidinyl)-2-propanesulfonamide], with 2.1 nM; and `COc1cccc(OC)c1-n1c(NS(=O)(=O)[C@H](C)[C@@H](C)n2cc(C)cn2)nnc1-c1cncc(C)c1` (racemic) [Example 647.0], with 1.7 nM; and `COc1cccc(OC)c1-n1c(NS(=O)(=O)[C@H](C)[C@@H](C)c2cnc(C)cn2)nnc1-c1cccnc1` (racemic) [Example 701.0, (2R,3S)-N-(4-(2,6-dimethoxyphenyl)-5-(3-pyridinyl)-4H-1,2,4-triazol-3-yl)-3-(5-methyl-2-pyrazinyl)-2-butanesulfonamide, (2S,3R)-N-(4-(2,6-dimethoxyphenyl)-5-(3-pyridinyl)-4H-1,2,4-triazol-3-yl)-3-(5-methyl-2-pyrazinyl)-2-butanesulfonamide], with 2 nM.
On to `COc1cccc(-c2nnc(NS(=O)(=O)[C@@H](C)[C@@H](OC(C)C)c3ncc(C)cn3)n2-c2c(OC)cccc2OC)n1` (single isomer, unassigned) [Example 95.0], for which the half-maximal effective concentration (EC50) turned out to be 0.11 nM.
For the compound `CCO[C@@H](c1ncc(C)cn1)[C@@H](C)S(=O)(=O)Nc1nnc(-c2cccnc2)n1-c1c(OC)cccc1OC` (single isomer, unassigned) [Example 108.0], the EC50 came out at 150 nM.
The same measure for `COc1cccc(OC)c1-n1c(NS(=O)(=O)[C@@H](C)Cc2ncc(F)cn2)nnc1-c1cncc(C)c1` (single isomer, unassigned) [Example 208.0]: 1 nM.
With `COc1cccc(OC)c1-n1c(NS(=O)(=O)[C@@H](C)Cc2ncc(F)cn2)nnc1-c1cncc(C)c1` (single isomer, unassigned) [Example 209.0], the EC50 is 4.9 nM.
Regarding `COc1cccc(OC)c1-n1c(NS(=O)(=O)[C@@H](C)Cc2ncc(F)cn2)nnc1-c1cnccc1C` (single isomer, unassigned) [Example 217.0], the EC50 turned out to be 180 nM.
`COc1cccc(OC)c1-n1c(NS(=O)(=O)[C@@H](C)Cc2ncc(F)cn2)nnc1-c1cnccc1C` (single isomer, unassigned) [Example 218.0]: the EC50 was 300 nM.
The same measure for `COc1cccc(OC)c1-n1c(NS(=O)(=O)[C@@H](C)Cc2ncc(F)cn2)nnc1-c1cncc(Cl)c1` (single isomer, unassigned) [Example 220.0]: 7.1 nM; for `COc1cccc(OC)c1-n1c(NS(=O)(=O)[C@@H](C)Cc2ncc(F)cn2)nnc1-c1cncc(Cl)c1` (single isomer, unassigned) [Example 221.0]: 35 nM.
The same measure for `COc1cccc(OC)c1-n1c(NS(=O)(=O)[C@@H](C)[C@H](C)c2ncc(F)cn2)nnc1-c1cncc(C)c1` (single isomer, unassigned) [Example 234.0]: 16 nM.
